{"source": "patent US5428031A", "about": "“Methods of treating cardiac arrhythmia” (priority 1993, dated 1995)", "test_system": "anesthetized dogs", "test": "frequency-dependent effects on cardiac (ventricular) refractory period in anesthetized dogs", "type": "in vivo, dog", "settings": "1.0 mg/kg i.v.", "procedure": "Purpose-bred male or female mongrel dogs (9.8-10.8 kg) were anesthetized with alpha chloralose (80-100 mg/kg i.v.), and the animals were ventilated using a volume-cycled respirator. The right femoral artery and vein were isolated and cannulated for the measurement of systemic arterial pressure and for test agent administration, respectively. A right thoracotomy was performed in the 4th intercostal space, the pericardium incised, and the heart suspended in a pericardial cradle. One stainless steel bipolar plunge electrode was sutured to the ,anterior surface of the right ventricle for the determination of ventricular excitation threshold and refractory periods, while a second stainless steel bipolar plunge electrode was sutured to the right ventricular apex for ventricular pacing. A 21 gauge stainless steel hypodermic needle attached to a 1 ml syringe containing 40% formaldehyde was introduced into the right atrium via a stab wound and purse-string suture. The atrioventricular (AV) node was identified and then chemically ablated with formaldehyde using the method of Steiner and Kovalik (Steiner C. and Kovalik A. T. W., \"A simple technique for production of chronic complete heart block in dogs\", J. Appl. Physiol. 25: 631-632:, 1968). After the ablation of the AV node, heart rate was controlled and maintained at either 60 or 150 beats/min, as dictated by the experimental protocol, by ventricular apical pacing. Limb electrodes were attached for the continuous recording of Lead II electrocardiogram.\nVentricular excitation threshold (ET) and relative refractory periods (RRPs) were determined alternately at heart rates of 60 and 150 beats/min using an extrastimulus technique described previously (Wallace A. A. et. al., \"Cardiac electrophysiologic and inotropic actions of new and potent methanesulfonanilide Class III antiarrhythmic agents in the anesthetized dog\". J. Cardiovasc. Pharmacol. 18: 687-695, 1991). Ventricular excitation threshold was defined as the minimum current required to evoke a propagated response for a ventricular extrastimulus introduced at a coupling interval of 250-300 msec after a basic ventricular apical beat. The ventricular relative refractory period was defined as the longest coupling interval failing to elicit a propagated response for a ventricular extrastimulus introduced with a current intensity of 2× the ventricular excitation threshold. Multiple alternating baseline 60 and 150 beat/min RRPs were measured in each preparation, with two-to-three stable consecutive baseline RRP determinations required prior to administration of the test agent.\nThe compound of Example 26 was administered intravenously at a dosage of 1.0 mg/kg over a period of 5 minutes to a group of 5 anesthetized dogs. The compound of Example 26 was infused in a vehicle of 2% cremophor/2% ethanol/96% saline, at a test agent concentration of 0.5 mg/ml. Ventricular RRPs at 60 and 150 beats/min were redetermined immediately, 15 and 30 minutes following the intravenous administration of the compound of Example 26. The frequency-dependence of the activity of the compound of Example 26 was assessed by comparing absolute increases in ventricular RRPs from the final corresponding baseline value determined at slower (60 beat/min) vs faster (150 beat/min) heart rates."}
{"compound": "CN1C(=O)[C@H](NC(=O)/C=C/c2ccc(Cl)cc2Cl)N=C(c2ccccc2)c2ccccc21", "note": "[Example 26, E-(+)-N-[(3R)-2,3-Dihydro-1-methyl-2-oxo-5-phenyl-1H-1,4-benzo-diazepin-3-yl]-3-(2,4-dichlorophenyl)-2-propenamide]", "values": [{"measurement": "Increase in Ventricular Relative Refractory Period above baseline", "setting": "60 beat/min, 15 Min", "value": "19.2 ± 3.4", "unit": "ms"}, {"measurement": "Increase in Ventricular Relative Refractory Period above baseline", "setting": "60 beat/min, 30 Min", "value": "14.0 ± 2.3", "unit": "ms"}, {"measurement": "Increase in Ventricular Relative Refractory Period above baseline", "setting": "60 beat/min, Immediate", "value": "29.6 ± 4.4", "unit": "ms"}, {"measurement": "Increase in Ventricular Relative Refractory Period above baseline", "setting": "150 beat/min, 15 Min", "value": "15.6 ± 4.1", "unit": "ms"}, {"measurement": "Increase in Ventricular Relative Refractory Period above baseline", "setting": "150 beat/min, 30 Min", "value": "11.4 ± 4.4", "unit": "ms"}, {"measurement": "Increase in Ventricular Relative Refractory Period above baseline", "setting": "150 beat/min, Immediate", "value": "23.2 ± 7.3", "unit": "ms"}, {"measurement": "frequency dependence of increase in ventricular RRP", "setting": "60 and 150 beat/min", "value": "Equivalent increases in the ventricular RRPs"}]}
